Several values for one entry are separate records, joined by “and”; a condition that tells them apart may be missing. Identical values can stand only once. Like-named read-outs stand apart in the source and are kept apart here.
How the values were obtained:
Type in all cases: cell-based
NR2F6 = biological target: T1, NR2F6 (Homo sapiens, UniProt P10588); assay: NR2F6 agonist screening, Firefly signal cmpd/DMSO
T1 construct: expressed in transfected cells; also transient transfection
T1 sequence (P10588 1-404): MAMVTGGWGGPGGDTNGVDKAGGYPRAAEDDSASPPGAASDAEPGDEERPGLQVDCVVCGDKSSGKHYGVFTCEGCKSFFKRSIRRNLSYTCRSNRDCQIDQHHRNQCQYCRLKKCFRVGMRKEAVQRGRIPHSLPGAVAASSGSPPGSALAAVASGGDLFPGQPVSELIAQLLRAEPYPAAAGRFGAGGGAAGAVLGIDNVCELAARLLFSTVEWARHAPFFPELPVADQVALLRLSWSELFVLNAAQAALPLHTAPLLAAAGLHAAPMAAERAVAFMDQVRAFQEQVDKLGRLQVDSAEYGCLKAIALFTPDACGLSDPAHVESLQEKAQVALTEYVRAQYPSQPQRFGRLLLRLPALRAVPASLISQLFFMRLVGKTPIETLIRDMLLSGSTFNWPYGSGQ

NR2F6 LBD = biological target: T2, NR2F6 LBD (Homo sapiens, UniProt P10588); assay: NR2F6 LBD transient transfection
T2 construct: expressed in transfected cells
T2 sequence (P10588 165-393 limits assumed): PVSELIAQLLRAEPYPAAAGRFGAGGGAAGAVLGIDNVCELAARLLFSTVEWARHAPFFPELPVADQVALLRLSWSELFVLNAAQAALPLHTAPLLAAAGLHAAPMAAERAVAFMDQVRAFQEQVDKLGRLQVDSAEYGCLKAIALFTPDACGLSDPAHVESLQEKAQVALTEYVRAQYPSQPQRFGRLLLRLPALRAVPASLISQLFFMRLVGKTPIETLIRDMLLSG
Method in brief: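 LBD-transfected cells treated at 40, 10, 2 and 0.5 μM (4 replicates); cytotoxicity measured in parallel, normalized to DMSO (0%) and zero signal (100%). Higher concentrations excluded where signal loss reflected toxicity.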

HEK293 pGL4 = assay: Firefly_pGL signal, cmpd/DMSO (pGL4 control cells); conditions: Homo sapiens
Renilla [1] = assay: Renilla signal in NR2F6 agonist screening, cmpd/DMSO; conditions: Renilla
Renilla [2] = assay: Renilla signal, LBD, cmpd/DMSO (NR2F6 LBD transfected cells)
[3] = read-out: Renilla F4, cmpd/DMSO (mean)
[4] = F4, read-out: Renilla, F4, cmpd/DMSO (mean)
[5] = F4, 1% FBS, read-out: Renilla, F4, 1% FBS, cmpd/DMSO (mean)
[6] = F4, 10% FBS, read-out: Renilla, F4, 10% FBS, cmpd/DMSO (mean)

CC(C)CCN[C@H]1CS(=O)(=O)C[C@@H]1S(=O)(=O)c1ccc(Cl)cc1 [Compound D131]
Firefly F4, cmpd/DMSO (mean) (NR2F6; 0.5 uM): 1.3 | Firefly F4, cmpd/DMSO (mean) (NR2F6; 0.5 uM, F4): 1.4 | Firefly F4, cmpd/DMSO (mean) (NR2F6; 2 uM): 1.4 | Firefly F4, cmpd/DMSO (mean) (NR2F6; 2 uM, F4): 1.9 | Firefly F4, cmpd/DMSO (mean) (NR2F6; 10 uM): 4.3 | Firefly F4, cmpd/DMSO (mean) (NR2F6; 10 uM, F4): 4.1 | Firefly F4, cmpd/DMSO (mean) (NR2F6; 40 uM): 0.9 | Firefly F4, cmpd/DMSO (mean) (NR2F6; 40 uM, F4): 2.3 | F4, Firefly/Renilla for S/B(F4) > 3 (NR2F6; 1% FBS, 10 uM): 2.7 and 2.1 | F4, Firefly/Renilla for S/B(F4) > 3 (NR2F6; 10% FBS, 10 uM): 2.2 | Firefly, F4/pGL4 for S/B(F4) > 3 (NR2F6; 10% FBS, 10 uM): 2.2 | F4, Firefly/Renilla for S/B(F4) > 3 (NR2F6; 10% FBS, 40 uM): 1.4 and 2.5 | Firefly, F4/pGL4 for S/B(F4) > 3 (NR2F6; 10% FBS, 40 uM): 2.3 and 2.1 | Firefly, F4, 1% FBS, cmpd/DMSO (mean) (NR2F6; F4, 1% FBS, 0.5 uM): 0.8 and 0.9 | Firefly, F4, 1% FBS, cmpd/DMSO (mean) (NR2F6; F4, 1% FBS, 2 uM): 1.5 and 0.9 | Firefly, F4, 1% FBS, cmpd/DMSO (mean) (NR2F6; F4, 1% FBS, 10 uM): 5.4 and 3.6 | Firefly, F4, 1% FBS, cmpd/DMSO (mean) (NR2F6; F4, 1% FBS, 40 uM): 0.8 and 0.7 | Firefly, F4, 10% FBS, cmpd/DMSO (mean) (NR2F6; F4, 10% FBS, 2 uM): 1.1 | Firefly, F4, 10% FBS, cmpd/DMSO (mean) (NR2F6; F4, 10% FBS, 10 uM): 4.1 and 2.3 | Firefly, F4, 10% FBS, cmpd/DMSO (mean) (NR2F6; F4, 10% FBS, 40 uM): 4.2 and 6.2 | Firefly LBD, cmpd/DMSO (mean) (NR2F6 LBD; 0.5 uM): 0.8 | Firefly LBD, cmpd/DMSO (mean) (NR2F6 LBD; 0.5 uM, LBD): 1.3 | Firefly LBD, cmpd/DMSO (mean) (NR2F6 LBD; 2 uM): 1.7 | Firefly LBD, cmpd/DMSO (mean) (NR2F6 LBD; 2 uM, LBD): 2.0 | Firefly LBD, cmpd/DMSO (mean) (NR2F6 LBD; 10 uM): 4.3 | Firefly LBD, cmpd/DMSO (mean) (NR2F6 LBD; 10 uM, LBD): 3.6 | Firefly LBD, cmpd/DMSO (mean) (NR2F6 LBD; 40 uM): 0.5 | Firefly LBD, cmpd/DMSO (mean) (NR2F6 LBD; 40 uM, LBD): 0.7 | fold induction at 0.5 µM (HEK293 pGL4; HEK293, 0.5 uM, pGL4, read-out: Firefly pGL4, cmpd/DMSO (mean)): 1.1 | fold induction at 0.5 µM (HEK293 pGL4; HEK293, 0.5 uM, read-out: Firefly pGL4, cmpd/DMSO (mean)): 1 | fold induction at 2 µM (HEK293 pGL4; HEK293, 2 uM, pGL4, read-out: Firefly pGL4, cmpd/DMSO (mean)): 1.5 | fold induction at 2 µM (HEK293 pGL4; HEK293, 2 uM, read-out: Firefly pGL4, cmpd/DMSO (mean)): 1.3 | fold induction at 10 µM (HEK293 pGL4; HEK293, 10 uM, pGL4, read-out: Firefly pGL4, cmpd/DMSO (mean)): 2.7 | fold induction at 10 µM (HEK293 pGL4; HEK293, 10 uM, read-out: Firefly pGL4, cmpd/DMSO (mean)): 2.3 | fold induction at 40 µM (HEK293 pGL4; HEK293, 40 uM, pGL4, read-out: Firefly pGL4, cmpd/DMSO (mean)): 0.5 | fold induction at 40 µM (HEK293 pGL4; HEK293, 40 uM, read-out: Firefly pGL4, cmpd/DMSO (mean)): 1 | fold induction at 0.5 µM (HEK293 pGL4; HEK293, pGL4, 1% FBS, 0.5 uM, read-out: Firefly, pGL4, 1% FBS, cmpd/DMSO (mean)): 1 | fold induction at 2 µM (HEK293 pGL4; HEK293, pGL4, 1% FBS, 2 uM, read-out: Firefly, pGL4, 1% FBS, cmpd/DMSO (mean)): 1.1 | fold induction at 10 µM (HEK293 pGL4; HEK293, pGL4, 1% FBS, 10 uM, read-out: Firefly, pGL4, 1% FBS, cmpd/DMSO (mean)): 1.7 | fold induction at 40 µM (HEK293 pGL4; HEK293, pGL4, 1% FBS, 40 uM, read-out: Firefly, pGL4, 1% FBS, cmpd/DMSO (mean)): 0.9 | fold induction at 0.5 µM (HEK293 pGL4; HEK293, pGL4, 10% FBS, 0.5 uM, read-out: Firefly, pGL4, 10% FBS, cmpd/DMSO (mean)): 1 | fold induction at 2 µM (HEK293 pGL4; HEK293, pGL4, 10% FBS, 2 uM, read-out: Firefly, pGL4, 10% FBS, cmpd/DMSO (mean)): 1.2 | fold induction at 10 µM (HEK293 pGL4; HEK293, pGL4, 10% FBS, 10 uM, read-out: Firefly, pGL4, 10% FBS, cmpd/DMSO (mean)): 1.9 | fold induction at 40 µM (HEK293 pGL4; HEK293, pGL4, 10% FBS, 40 uM, read-out: Firefly, pGL4, 10% FBS, cmpd/DMSO (mean)): 1.8 | fold induction at 0.5 µM (Renilla [1]; [3]): 1 | fold induction at 2 µM (Renilla [1]; [3]): 1 | fold induction at 10 µM (Renilla [1]; [3]): 1.9 | fold induction at 40 µM (Renilla [1]; [3]): 0.3 | fold induction at 0.5 µM (Renilla [1]; [4]): 1.1 | fold induction at 2 µM (Renilla [1]; [4]): 1.2 | fold induction at 10 µM (Renilla [1]; [4]): 1.6 | fold induction at 40 µM (Renilla [1]; [4]): 1.8 | fold induction at 0.5 µM (Renilla [1]; [5]): 1 | fold induction at 2 µM (Renilla [1]; [5]): 1.3 | fold induction at 10 µM (Renilla [1]; [5]): 2 | fold induction at 40 µM (Renilla [1]; [5]): 2 | fold induction at 0.5 µM (Renilla [1]; [6]): 1 | fold induction at 2 µM (Renilla [1]; [6]): 1.1 | fold induction at 10 µM (Renilla [1]; [6]): 1.8 | fold induction at 40 µM (Renilla [1]; [6]): 3 | Renilla LBD, cmpd/DMSO (mean) (Renilla [2]; 0.5 uM): 1.1 | Renilla LBD, cmpd/DMSO (mean) (Renilla [2]; 2 uM): 1.1 | Renilla LBD, cmpd/DMSO (mean) (Renilla [2]; 10 uM): 0.8 | Renilla LBD, cmpd/DMSO (mean) (Renilla [2]; 40 uM): 0.2

Reference: patent publication US11377442B2, “Small molecule agonists and antagonists of NR2F6 activity” (ZANDER THERAPEUTICS, INC., priority 2016, dated 2022)
